For this test, the target named is SIK2 (Homo sapiens (Human), UniProt Q9H0K1). The experiment in a line: SIK2 Enzymatic Assay Version 2 (High ATP). Type of test: biochemical. To be noted: 3 mM ATP and 200 μM HDAC5tide final, ADP-Glo Max luminescence. In short, it runs like this:
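Run at room temperature; SIK2 enzyme at 6 nM (2× final) preincubated with compound 30 min before reaction. ADP formation detected by ADP-Glo Max (2 h reagent, 1 h detection) with luminescence read-out.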
On the technique in general: In ADP-Glo the light output rises with the ADP produced.
Chain of SIK2 (Q9H0K1 whole entry, species assumed): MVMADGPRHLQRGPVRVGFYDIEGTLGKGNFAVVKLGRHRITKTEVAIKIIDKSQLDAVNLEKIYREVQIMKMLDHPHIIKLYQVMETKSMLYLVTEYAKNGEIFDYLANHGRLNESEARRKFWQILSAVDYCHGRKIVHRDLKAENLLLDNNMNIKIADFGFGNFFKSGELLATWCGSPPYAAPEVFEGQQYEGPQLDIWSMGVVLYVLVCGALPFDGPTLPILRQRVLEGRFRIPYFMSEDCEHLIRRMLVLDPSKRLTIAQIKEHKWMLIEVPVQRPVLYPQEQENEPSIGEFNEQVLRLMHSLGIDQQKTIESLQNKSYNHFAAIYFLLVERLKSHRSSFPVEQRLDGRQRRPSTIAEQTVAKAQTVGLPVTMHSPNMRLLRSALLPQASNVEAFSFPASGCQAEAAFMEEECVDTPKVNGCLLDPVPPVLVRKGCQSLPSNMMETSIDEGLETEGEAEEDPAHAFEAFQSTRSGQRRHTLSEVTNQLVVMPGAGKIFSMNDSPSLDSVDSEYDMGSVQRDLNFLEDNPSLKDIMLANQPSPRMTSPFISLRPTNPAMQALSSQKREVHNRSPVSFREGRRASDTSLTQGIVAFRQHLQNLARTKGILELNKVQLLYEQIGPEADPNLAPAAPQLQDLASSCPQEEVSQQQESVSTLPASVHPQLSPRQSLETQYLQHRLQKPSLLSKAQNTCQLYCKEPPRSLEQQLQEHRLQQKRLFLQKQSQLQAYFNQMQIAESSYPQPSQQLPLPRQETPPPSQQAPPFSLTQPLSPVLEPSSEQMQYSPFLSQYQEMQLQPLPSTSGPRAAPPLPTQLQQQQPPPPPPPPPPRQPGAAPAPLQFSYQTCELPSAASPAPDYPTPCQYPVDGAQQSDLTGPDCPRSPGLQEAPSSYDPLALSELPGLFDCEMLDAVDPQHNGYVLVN
A word on the IC50: it is the concentration at which inhibition is half-maximal. Lower therefore signals higher potency. In turn, `Cc1onc(OC[C@H]2CCCCN2C)c1-c1ccn2nc(NC(=O)C3CC3)cc2c1` [Example 502, N-[5-[5-methyl-3-[[(2R)-1-methyl-2-piperidyl]methoxy]isoxazol-4-yl]pyrazolo[1,5-a]pyridin-2-yl]cyclopropanecarboxamide] displayed a concentration for half-maximal inhibition (IC50) of 1580 nM.

Turning to `CN1CCCC[C@@H]1COc1cnn(C)c1-c1ccn2nc(NC(=O)C3CC3)cc2c1` [Example 507, N-[5-[2-methyl-4-[[(2R)-1-methyl-2-piperidyl]methoxy]pyrazol-3-yl]pyrazolo[1,5-a]pyridin-2-yl]cyclopropanecarboxamide], half-maximal inhibition (IC50) required 1700 nM.

For the compound `Cc1cnc(Nc2cc3cc(-c4c(OC[C@H]5CCN5C)noc4C)ccn3n2)cn1` [Example 323, 5-[5-methyl-3-[[(2R)-1-methylazetidin-2-yl]methoxy]isoxazol-4-yl]-N-(5-methylpyrazin-2-yl)pyrazolo[1,5-a]pyridin-2-amine], the IC50 was 25.6 nM.

`COC1(COc2noc(C)c2-c2ccn3nc(NC(=O)C4CC4)cc3c2)CN(C)C1` [Example 29, N-[5-[3-[(3-methoxy-1-methyl-azetidin-3-yl)methoxy]-5-methyl-isoxazol-4-yl]pyrazolo[1,5-a]pyridin-2-yl]cyclopropanecarboxamide] registered a half-maximal inhibitory concentration (IC50) of 360 nM.

`CCN1CC[C@@H]1COc1cnn(C)c1-c1ccn2nc(Nc3cc(C)nc(C(F)(F)F)n3)cc2c1` [Example 73, 5-[4-[[(2R)-1-ethylazetidin-2-yl]methoxy]-2-methyl-pyrazol-3-yl]-N-[6-methyl-2-(trifluoromethyl)pyrimidin-4-yl]pyrazolo[1,5-a]pyridin-2-amine] returned a concentration for half-maximal inhibition (IC50) of less than 0.847 nM.

In turn, `Cc1cc(Nc2cc3cc(-c4c(OC[C@@H](O)C5(C)CC5)cnn4C)ccn3n2)nc(C)n1` (single isomer, unassigned) [Example 357, *S-1-methylcyclopropyl-2-[5-[2-[(2,6-dimethylpyrimidin-4-yl)amino]pyrazolo[1,5-a]pyridin-5-yl]-1-methyl-pyrazol-4-yl]oxy-ethanol] gave a half-inhibitory concentration (IC50) of 61.9 nM.

Take `CN1CC[C@H](Oc2cnn(C)c2-c2ccn3nc(Nc4cc(C(F)(F)F)cnn4)cc3c2)C1` [Example 457, 5-[2-methyl-4-[(3S)-1-methylpyrrolidin-3-yl]oxy-pyrazol-3-yl]-N-[5-(trifluoromethyl)pyridazin-3-yl]pyrazolo[1,5-a]pyridin-2-amine]: the IC50 stood at 165 nM.

Take `CN1CC[C@H](Oc2cnn(C)c2-c2ccn3nc(Nc4ccn5nccc5n4)cc3c2)C1` [Example 268, N-[5-[2-methyl-4-[(3S)-1-methylpyrrolidin-3-yl]oxy-pyrazol-3-yl]pyrazolo[1,5-a]pyridin-2-yl]pyrazolo[1,5-a]pyrimidin-5-amine]: half-maximal inhibition (IC50) required 36.5 nM.

`CN1CC[C@@H]1COc1cnn(C)c1-c1ccn2nc(N)cc2c1` [Example 503, 5-[2-methyl-4-[[(2R)-1-methylazetidin-2-yl]methoxy]pyrazol-3-yl]pyrazolo[1,5-a]pyridin-2-amine] had an IC50 of 442 nM.

`Cc1cc(Nc2cc3cc(-c4c(OC[C@H]5CCN5C)cnn4C)ccn3n2)nn(C)c1=O` [Example 152, 2,4-dimethyl-6-[[5-[2-methyl-4-[[(2R)-1-methylazetidin-2-yl]methoxy]pyrazol-3-yl]pyrazolo[1,5-a]pyridin-2-yl]amino]pyridazin-3-one] had a 50% inhibitory concentration (IC50) of less than 0.847 nM.

As to `CN1CC[C@H](Oc2cnn(C)c2-c2ccn3nc(Nc4ccc5c(n4)CCOC5)cc3c2)C1` [Example 280, N-[5-[2-methyl-4-[(3S)-1-methylpyrrolidin-3-yl]oxy-pyrazol-3-yl]pyrazolo[1,5-a]pyridin-2-yl]-7,8-dihydro-5H-pyrano[4,3-b]pyridin-2-amine], the IC50 was 35.8 nM.

For `CN1CC[C@@H]1COc1cnn(C)c1-c1ccn2nc(NC(=O)c3cnn(C)c3)cc2c1` [Example 26, 1-methyl-N-[5-[2-methyl-4-[[(2R)-1-methylazetidin-2-yl]methoxy]pyrazol-3-yl]pyrazolo[1,5-a]pyridin-2-yl]pyrazole-4-carboxamide], the IC50 is 319 nM.

The values are drawn from patent publication US20240174662A1, “SMALL MOLECULE INHIBITORS OF SALT INDUCIBLE KINASES” (Janssen Biotech, Inc., priority 2021, published 2024).
